Test results published in BindingDB's records for doi:10.1016/S0960-894X(01)80277-8 (1994).

Assay: Binding to delta opioid receptor by using [3H]DPDPE as radioligand in guinea pig brain minus cerebellum

| SMILES | IC50 |
| --- | --- |
| CC(=O)c1ccc2c3c1O[C@H]1[C@@H](O)C=C[C@H]4[C@@H](C2)N(C)CC[C@@]341 [1-[14-hydroxy-4-methyl-(1S,5R,13R,14S,17R)-12-oxa-4-azapentacyclo[9.6.1.01,13.05,17.07,18]octadeca-7(18),8,10,15-tetraen-10-yl]-1-ethanone] | 7.9 µM |
| CN1CC[C@]23c4c5ccc(-c6ccoc6)c4O[C@H]2[C@@H](O)C=C[C@H]3[C@H]1C5 [10-(3-furyl)-4-methyl-(1S,5R,13R,14S,17R)-12-oxa-4-azapentacyclo[9.6.1.01,13.05,17.07,18]octadeca-7(18),8,10,15-tetraen-14-ol] | 7.4 µM |
